Assay results as given in ChEMBL document CHEMBL1201862, “PubChem BioAssay data set” (2004).
The source made the active and inactive calls.

How the values were obtained:
[1] = target: T1, Carboxy-terminal domain RNA polymerase II polypeptide A small phosphatase 1 (Homo sapiens, UniProt Q9GZU7); assay: CTDSP1 inhibitors, concentration-response, biochemical, absorbance readout, ultra-high-throughput screen actives (AID 540297); assay type: functional
T1 sequence (Q9GZU7 whole entry): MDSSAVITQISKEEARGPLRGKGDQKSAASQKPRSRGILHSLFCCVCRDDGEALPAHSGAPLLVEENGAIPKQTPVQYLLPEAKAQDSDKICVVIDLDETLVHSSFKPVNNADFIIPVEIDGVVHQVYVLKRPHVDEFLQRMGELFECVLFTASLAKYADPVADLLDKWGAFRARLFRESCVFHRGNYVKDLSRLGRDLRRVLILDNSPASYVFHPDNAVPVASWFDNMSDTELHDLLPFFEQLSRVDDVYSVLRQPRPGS

Cytochrome P450 3A4 = Cytochrome P450 3A4 (Homo sapiens, UniProt P08684);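 note: CYP3A4 tested as one member of a cytochrome P450 panel screen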
Cytochrome P450 1A2 = target: T2, Cytochrome P450 1A2 (Homo sapiens, UniProt P05177);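 note: PubChem cytochrome P450 panel assay, CYP1A2 panel member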
T2 sequence (P05177 whole entry): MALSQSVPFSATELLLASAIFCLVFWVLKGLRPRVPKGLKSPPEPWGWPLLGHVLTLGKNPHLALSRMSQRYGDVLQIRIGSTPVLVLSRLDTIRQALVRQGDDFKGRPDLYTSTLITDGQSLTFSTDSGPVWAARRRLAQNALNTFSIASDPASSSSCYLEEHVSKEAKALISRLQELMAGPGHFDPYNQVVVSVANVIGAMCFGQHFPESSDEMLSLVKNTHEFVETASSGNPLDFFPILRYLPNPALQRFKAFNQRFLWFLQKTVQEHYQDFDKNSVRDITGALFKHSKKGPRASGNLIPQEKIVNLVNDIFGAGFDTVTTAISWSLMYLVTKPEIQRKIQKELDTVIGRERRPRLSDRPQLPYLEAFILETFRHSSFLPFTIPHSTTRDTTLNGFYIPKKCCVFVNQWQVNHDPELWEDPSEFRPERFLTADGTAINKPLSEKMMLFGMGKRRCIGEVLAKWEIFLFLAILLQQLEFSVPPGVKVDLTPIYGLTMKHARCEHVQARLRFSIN

[2] = reduction of Shn3 3'UTR-driven luciferase in osteoblasts – cell-based, Clone20 osteoblasts, firefly luciferase, cherry-picked, dose response (AID 624132); assay type: functional;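 note: firefly luciferase luminescence from reporter carrying the Shn3 3'UTR in osteoblasts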
cells = assay type: functional
Cytochrome P450 2C9 = Cytochrome P450 2C9 (Homo sapiens, UniProt P11712)
[3] = Luminescence Cell-Based Dose Response HTS to Identify Activators of Luciferase Translation or Activity in H4 […] Cells. [Related pubchem assays: 1829 (Project Summary), 1814 (Primary HTS)]; assay type: functional
H4 = assay: Luminescence Cell-Based Dose Response HTS to Identify Activators of 5'UTR Stem-Loop Driven Prion Protein mRNA Translation in H4 Neuroglioblastoma Cells. [Related pubchem assays: 1829 (Project Summary), 1814 (Primary HTS)]; assay type: functional; details: Homo sapiens
[4] = Luminescence Cell-Based Dose Confirmation HTS to Identify Activators of 5'UTR Stem-Loop Driven Alpha-Synuclein mRNA Translation in H4 Neuroglioblastoma Cells. [Related pubchem assays: 1829 (Project Summary), 1814 (Primary HTS)]; assay type: functional
Cytochrome P450 2D6 = Cytochrome P450 2D6 (Homo sapiens, UniProt P10635);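 note: CYP2D6 member of a cytochrome P450 panel assay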
[5] = luciferase reporter signal suppression in cells – H4 neuroglioma cells, luminescence, dose response (AID 1990); assay type: functional, cell-based
[6] = Luminescence Cell-Based Dose Response HTS to Identify Inhibitors of 5'UTR Stem-Loop Driven Prion Protein mRNA Translation in H4 Neuroglioblastoma Cells. [Related pubchem assays: 1827 (Project Summary), 1813 (Primary HTS)]; assay type: functional
[7] = alpha-synuclein stem-loop luciferase translation blockers – H4 neuroglioma cells, luminescence, confirmation (AID 1988); assay type: functional, cell-based
Streptococcus = assay: GAS UMAA2166 growth inhibition – luminescence, BacTiterGlo, counter-screen for streptokinase expression inhibitor project, dose response (AID 1915); assay type: functional, organism-based;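 note: potency for reduction of bacterial viability or growth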
[8] = tested on: Streptococcus sp. 'group A'; assay: Streptococcus pyogenes SK(-)GAS viability under kanamycin – luminescence, BacTiterGlo, confirmation, counter-screen for streptokinase expression inhibitor project, dose response (AID 1900); assay type: functional, organism-based
[9] = target: T3, Polyadenylate-binding protein 1 (Homo sapiens, UniProt P11940); assay: MLLE binding blockers, Cy5 peptide tracer – biochemical, fluorescence polarization, Cy5-PAM2 peptide, secondary, miRNA deadenylation inhibitor project, dose response (AID 602260); assay type: functional; details: read-out: IC50_Mean
[10] = target: T4, Heat shock factor protein 1 (Mus musculus, UniProt P38532); assay: decrease of HSF1-responsive luciferase luminescence – cell-based, NIH3T3, dose retest, confirmation (AID 2382); assay type: functional;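 note: NIH3T3 fibroblasts with HSF1-driven luciferase reporter stressed by proteasome inhibitor MG132; luminescence from HSF1-driven luciferase expression after 8 hours of MG132 stress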
T4 sequence (P38532 whole entry): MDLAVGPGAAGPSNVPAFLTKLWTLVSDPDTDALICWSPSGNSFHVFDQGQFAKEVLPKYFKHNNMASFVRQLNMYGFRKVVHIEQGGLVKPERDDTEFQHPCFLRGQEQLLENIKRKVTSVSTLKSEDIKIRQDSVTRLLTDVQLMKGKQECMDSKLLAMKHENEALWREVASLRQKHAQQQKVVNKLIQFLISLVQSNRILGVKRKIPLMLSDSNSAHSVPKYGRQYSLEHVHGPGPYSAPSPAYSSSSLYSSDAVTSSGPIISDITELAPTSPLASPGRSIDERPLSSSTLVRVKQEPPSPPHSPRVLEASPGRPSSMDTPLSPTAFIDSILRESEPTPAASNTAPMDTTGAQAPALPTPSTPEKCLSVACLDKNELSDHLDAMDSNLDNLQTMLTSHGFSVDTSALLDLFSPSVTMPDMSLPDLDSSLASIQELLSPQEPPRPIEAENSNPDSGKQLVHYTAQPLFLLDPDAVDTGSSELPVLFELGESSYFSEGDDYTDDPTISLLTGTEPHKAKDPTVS

[11] = target: T3, Polyadenylate-binding protein 1; assay: MLLE domain peptide-binding blockers, IC50 – biochemical, fluorescence polarization, FITC-PAM2 peptide, dose response (AID 602259); assay type: functional; details: read-out: IC50_Mean

T3 sequence (P11940 whole entry): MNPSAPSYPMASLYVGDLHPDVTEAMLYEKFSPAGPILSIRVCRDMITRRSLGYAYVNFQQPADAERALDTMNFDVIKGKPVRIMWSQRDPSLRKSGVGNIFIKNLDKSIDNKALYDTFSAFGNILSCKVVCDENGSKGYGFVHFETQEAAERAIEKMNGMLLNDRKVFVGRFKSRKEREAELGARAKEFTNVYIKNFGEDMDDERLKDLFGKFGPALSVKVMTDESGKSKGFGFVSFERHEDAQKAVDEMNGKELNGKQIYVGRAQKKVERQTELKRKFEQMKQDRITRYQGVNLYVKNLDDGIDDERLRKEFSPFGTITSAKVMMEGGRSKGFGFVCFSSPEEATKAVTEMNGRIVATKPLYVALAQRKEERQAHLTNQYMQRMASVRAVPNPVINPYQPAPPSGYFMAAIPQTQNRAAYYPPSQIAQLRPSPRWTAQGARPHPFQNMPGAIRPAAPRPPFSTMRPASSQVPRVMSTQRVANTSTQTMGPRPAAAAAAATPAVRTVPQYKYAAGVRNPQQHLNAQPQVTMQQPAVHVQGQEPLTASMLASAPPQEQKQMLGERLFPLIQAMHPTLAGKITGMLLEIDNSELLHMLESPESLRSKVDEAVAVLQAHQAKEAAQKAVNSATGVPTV
Chain of Cytochrome P450 3A4 (P08684 whole entry): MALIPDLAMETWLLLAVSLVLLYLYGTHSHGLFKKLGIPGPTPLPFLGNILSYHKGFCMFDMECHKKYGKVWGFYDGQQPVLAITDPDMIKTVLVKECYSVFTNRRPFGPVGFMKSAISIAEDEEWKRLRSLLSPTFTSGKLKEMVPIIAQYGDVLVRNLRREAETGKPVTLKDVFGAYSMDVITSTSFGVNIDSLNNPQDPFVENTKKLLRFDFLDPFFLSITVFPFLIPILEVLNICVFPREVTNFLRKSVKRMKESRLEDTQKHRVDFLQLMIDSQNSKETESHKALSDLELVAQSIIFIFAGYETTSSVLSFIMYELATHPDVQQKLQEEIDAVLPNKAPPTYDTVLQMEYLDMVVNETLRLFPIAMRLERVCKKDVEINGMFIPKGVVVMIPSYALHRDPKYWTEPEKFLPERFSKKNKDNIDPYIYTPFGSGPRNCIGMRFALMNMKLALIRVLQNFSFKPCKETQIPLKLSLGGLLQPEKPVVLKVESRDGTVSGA
Chain of Cytochrome P450 2C9 (P11712 whole entry): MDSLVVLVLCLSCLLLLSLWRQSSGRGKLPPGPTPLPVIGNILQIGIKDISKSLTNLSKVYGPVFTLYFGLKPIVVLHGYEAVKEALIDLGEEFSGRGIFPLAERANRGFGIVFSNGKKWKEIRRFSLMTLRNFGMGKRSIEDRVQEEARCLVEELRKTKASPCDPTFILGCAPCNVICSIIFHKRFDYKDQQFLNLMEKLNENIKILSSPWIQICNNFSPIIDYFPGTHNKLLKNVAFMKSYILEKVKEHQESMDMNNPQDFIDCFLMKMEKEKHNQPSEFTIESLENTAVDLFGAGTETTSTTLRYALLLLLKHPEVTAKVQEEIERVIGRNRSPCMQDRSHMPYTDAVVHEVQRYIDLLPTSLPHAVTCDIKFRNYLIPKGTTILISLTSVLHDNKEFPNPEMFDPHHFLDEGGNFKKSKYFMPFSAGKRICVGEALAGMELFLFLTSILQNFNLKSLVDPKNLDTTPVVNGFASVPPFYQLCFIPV
Chain of Cytochrome P450 2D6 (P10635 whole entry): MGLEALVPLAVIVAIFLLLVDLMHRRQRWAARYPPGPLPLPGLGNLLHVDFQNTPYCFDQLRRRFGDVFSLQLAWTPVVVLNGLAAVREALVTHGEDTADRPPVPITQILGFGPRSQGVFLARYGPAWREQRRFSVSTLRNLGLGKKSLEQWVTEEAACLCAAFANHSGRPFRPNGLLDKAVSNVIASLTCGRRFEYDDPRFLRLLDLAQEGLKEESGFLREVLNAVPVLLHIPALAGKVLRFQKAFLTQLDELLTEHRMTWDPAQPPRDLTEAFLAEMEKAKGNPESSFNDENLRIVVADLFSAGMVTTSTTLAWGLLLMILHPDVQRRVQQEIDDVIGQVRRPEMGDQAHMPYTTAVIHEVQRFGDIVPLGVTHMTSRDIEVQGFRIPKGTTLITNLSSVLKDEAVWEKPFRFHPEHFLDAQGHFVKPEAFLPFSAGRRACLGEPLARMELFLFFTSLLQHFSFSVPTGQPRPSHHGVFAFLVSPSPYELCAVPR

O=c1c2ccccc2nc2sc(Nc3ccc(F)cc3)nn12
IC50 [1]: 8.04 µM (active)

O=C(CCCCCNC(=O)c1ccccc1)N/N=C/c1ccco1
IC50 [1]: 29.2 µM (active)

O=C(c1cnccn1)N1CCC[C@@]2(CCN(C(c3ccccc3)c3ccccc3)C2)C1
AC50 (Cytochrome P450 3A4): 2.51 µM (inconclusive)
AC50 (Cytochrome P450 1A2): 15.8 µM (inconclusive)

CCN(CC)C(=O)[C@H]1C[C@H](CC(=O)NC/C=C(\C)CCC=C(C)C)C(=O)N2CCc3c([nH]c4cc(CCC(=O)N(C)C)ccc34)[C@]12C
AC50 [2]: 1.37 µM (active)

O=C(CSc1ncccc1-c1nc2ccccc2[nH]1)NCc1ccco1
IC50 [1]: 10.3 µM (active)

COc1ccccc1/C=C/C=N/NC(=O)c1ccncc1
IC50 (cells): 0.44 µM (active)

CCOC(=O)c1cnn(-c2ccc(C(C)C)cc2)c1NC(=O)C1CCC1
AC50 (Cytochrome P450 2C9): 39.8 µM (inconclusive)
EC50 [3]: 18.9 µM (active)
AC50 (Cytochrome P450 3A4): 39.8 µM (inconclusive)
EC50 (H4): > 120 µM (not active)
AC50 (Cytochrome P450 1A2): 14.1 µM (inconclusive)
EC50 [4]: 13.4 µM (active)
AC50 (Cytochrome P450 2D6): 8.91 µM (inconclusive)

Cc1cc(Cn2cnc3c2C[C@@H](C(=O)O)N(C(=O)C(c2ccccc2)c2ccccc2)C3)ccc1N(C)C
AC50 (Cytochrome P450 1A2): 25.1 µM (inconclusive)
AC50 (Cytochrome P450 2D6): 39.8 µM (inconclusive)

Cc1ccc(NC(=O)C2C3CCCC2C3c2ccccc2)c(C)c1 (stereo unspecified)
EC50 [5]: > 120 µM (not active)
EC50 [6]: > 120 µM (not active)
EC50 [7]: > 120 µM (not active)

O=C(NCCNc1ccc([N+](=O)[O-])cc1Cl)c1ccccc1F
EC50 [5]: > 120 µM (not active)
EC50 [6]: 26.4 µM (active)
EC50 [7]: 76.3 µM (active)

O=C(Cc1ccc(Cl)cc1)OCC(=O)c1ccc[nH]1
IC50 (cells): 18.8 µM (active)

O=C1N=C(Nc2ccccn2)SC1Cc1ccc(Cl)cc1 (stereo unspecified)
IC50 (cells): > 25 µM (active)
EC50 (Streptococcus): > 150 µM (not active)
EC50 [8]: 83.8 µM (active)

Cc1ccc(C(=O)Nc2cccc(C(F)(F)F)c2)cc1NC(=O)c1cnnc2ccccc12
EC50 [5]: 13.2 µM (active)
EC50 [6]: 18.9 µM (active)
EC50 [7]: > 120 µM (not active)

COCCCNC(=O)c1ccc(Cn2c(=O)c3ccccc3n(Cc3ccccc3C#N)c2=O)cc1
EC50 [5]: 20.7 µM (active)
EC50 [6]: > 120 µM (not active)
EC50 [7]: > 120 µM (not active)

S=C(c1ccc(N2CCOCC2)cc1)N1CCOCC1
IC50 [9]: > 66 µM (inactive)
EC50 [10]: > 195 µM (not active)
IC50 [11]: > 66 µM (inactive)

COc1ccc(N/N=C2/CCCCC2=O)cc1
IC50 [9]: > 66 µM (inactive)
IC50 [11]: > 66 µM (inactive)

COc1ccccc1/C=N/N=C(/Nc1ccc(C)cc1)c1nc2ccccc2s1
AC50 (Cytochrome P450 2C9): 17.8 µM (inconclusive)
AC50 (Cytochrome P450 3A4): 17.8 µM (inconclusive)
AC50 (Cytochrome P450 1A2): 14.1 µM (inconclusive)

O=C(O)CNC(=O)c1ccccc1O [SALICYLURIC ACID]
AC50 (Cytochrome P450 1A2): 5.01 µM (inconclusive)

O=c1c(-c2ccccc2)nc2cnc(N3CCOCC3)nc2n1CCc1ccccc1
AC50 (Cytochrome P450 3A4): 31.6 µM (inconclusive)
AC50 (Cytochrome P450 1A2): 12.6 µM (inconclusive)

CCOC(=O)c1c(NC(=O)C2(C)Cc3ccccc3C(=O)O2)sc2c1CCCC2 (stereo unspecified)
IC50 [9]: > 66 µM (inactive)
IC50 [11]: > 66 µM (inactive)

CCCn1c(=O)c(C(=O)N/N=C/c2ccccc2F)c(O)c2ccccc21
IC50 (cells): 48.2 µM (active)
